Test results as given in PMC2700083, “A covalent peptide inhibitor of RGS4 identified in a focused one-bead, one compound library screen” (BMC Pharmacology, 2009).
In brackets after ≈: the same amount, converted by molar mass. Several values for one entry are separate records, joined by “and”; a condition that tells them apart may be missing. Equal entries are not always repeated. Where two headings read alike, the source gives them in different places. Where a SMILES comes first, the peptide text is derived from it. Bridges are numbered along the chain shown (N, C = ends).

Key:
[1] = Solubility in buffer by HPLC; type: physicochemical
Protocol: Soluble peptides were synthesized on Rink resin, cleaved and cyclized as described previously. Peptide purity (at least 95%) and solubility were verified by high-performance liquid chromatography and correct mass was verified by MS analysis. ALogP calculations are from. Peptides were prepared as 5 mM stocks in DMSO.

RGS19 = molecular target: T1, RGS19 (Homo sapiens, UniProt P49795); assay: FCPIA, Gαo binding to RGS19; details: Figure 2
T1 construct: RGS19ΔC11 (amino acids 1–209); made in house
T1 sequence (P49795 1-209): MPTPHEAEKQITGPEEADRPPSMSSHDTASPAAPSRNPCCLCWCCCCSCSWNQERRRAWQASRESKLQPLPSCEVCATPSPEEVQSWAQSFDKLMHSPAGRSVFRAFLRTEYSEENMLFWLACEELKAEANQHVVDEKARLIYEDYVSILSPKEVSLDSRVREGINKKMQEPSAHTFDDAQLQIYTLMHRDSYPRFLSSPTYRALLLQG
Protocol: We recently described a bead-based screen in which 2.5 × 10^6 different peptide sequences were prepared as a OBOC library. Fluorescently labeled RGS4 was used to probe the library for peptides that bind RGS4 [5]. […] Since the majority of those hit peptides could bind tightly to the RGS without disrupting GAP activity, they were also tested in the flow cytometry protein interaction assay (FCPIA) (Figure 1), which measures the interaction between RGS4 and Gαo. In this method we used a Luminex flow cytometer to detect the binding of Alexa Fluor 532-labeled Gαo to biotinylated RGS4 on avidin beads in the presence of AMF (AlCl3, MgCl2, NaF and GDP) to put the Gα subunit into a transition state-like conformation. Peptides were tested at 50 μM except where limited by solubility (Table 1).
5nd inhibited Gαo binding to a number of different RGS proteins (Figure 2). […] RGS19 and RGS7 are in the RZ and R7 families, respectively and show less inhibition by 5nd. Linear as well as bridged versions of peptide 5 were tested in the FCPIA since cyclization yields would most likely have been less then 100% in the synthesis of the library leaving some linear peptides present on each bead. […] This may be due to lack of structural rigidity necessary for the correct interaction of the peptide with the RGS protein or a role for chemical reactivity of the disulfide.
Figure 2 Characterization of hit 5. […]

RGS4 = molecular target: T2, RGS4 (Rattus norvegicus, UniProt P49799); assay: FCPIA (flow cytometry protein interaction assay), RGS4-Gαo interaction, wild type RGS4 (MBP-RGS4Δ51N); type: binding; details: 100 μM
T2 construct: made in house
T2 sequence (P49799 52-205 limits assumed): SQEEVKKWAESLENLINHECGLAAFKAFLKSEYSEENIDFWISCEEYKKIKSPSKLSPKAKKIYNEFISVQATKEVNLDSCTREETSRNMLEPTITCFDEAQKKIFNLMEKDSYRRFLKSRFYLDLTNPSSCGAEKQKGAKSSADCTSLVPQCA

RGS4Δ51N = molecular target: T3, RGS4Δ51N (Rattus norvegicus, UniProt P49799); assay: MALDI MS analysis of covalent adduct with RGS4Δ51N; details: 250 μM 5nd
T3 construct: MBP (N, cleaved yes); His6 (N, cleaved yes); made in house
T3 sequence (P49799 52-205 limits assumed): T2 sequence (P49799 52-205 limits assumed)
Protocol: To directly test for the formation of a covalent adduct between 5nd and RGS4, we performed mass spectrometry (MS) analysis. The RGS4Δ51N protein, following TEV-protease cleavage from the MBP-His6 construct, was treated with 5nd at a 50:1 molar ratio. An adduct to the protein that is consistent with the mass of 5nd binding through a disulfide bridge was observed by MS (Figure 4, mass shift observed: Δ999.2 ± 1; expected: Δ998.5). […] There is also a small peak that may represent two peptides per RGS (observed: Δ1999.1 ± 2; expected: Δ1997.0).
Figure 4 MS analysis of RGS4 with and without 5nd pretreatment. RGS4Δ51N was cleaved from the MBP-His6 construct and subject to MALDI MS after pretreatment with DMSO (A) or 5nd (250 μM) (B). Both spectra show the region between 4,000 and 30,000 m/z and have the peak at 18158.8 or 18158.2 m/z for A and B, respectively, which corresponds to the cleaved RGS4Δ51N protein (black arrows). The spectrum in B also has a peak at 19158 m/z that corresponds to a peptide adduct (grey arrows). There is a very small peak at 20157.9 that may correspond to 2 peptides per RGS (grey arrows). The inset is a blow-up of the region between 17500 and 20500 m/z.
Total mass MS of 5 μM RGS4Δ51N was analyzed on a MicroMX MALDI MS instrument in positive ion mode with an accuracy of ± 0.1% after pretreatment with DMSO or 250 μM 5nd. […]

CC(C)C[C@@H]1NC(=O)CNC(=O)[C@H](CCCCN)NC(=O)[C@@H](NC(=O)[C@H](Cc2c[nH]c3ccccc23)NC(=O)[C@@H](N)Cc2ccc(O)cc2)CSSC[C@@H](C(=O)N[C@@H](CCCCN)C(N)=O)NC1=O [Peptide 5nd, Tyr-Trp-c [Cys-Lys-Gly-Leu-Cys]-Lys-NH2, S-S] (H-YWCKGLCK-NH2; disulfide 3-7)
solubility [1]: 463 µM (≈ 462 µg/mL) | IC50 (RGS19; read-out: logIC50, RGS19 (converted)): ~145 µM | IC50 (RGS19; dose response, read-out: IC50, Gαo binding to RGS19): 145 µM and ~145 µM | inhibition at 100 µM (RGS4; beads washed in buffer with 1 mM DTT, read-out: percent inhibition of RGS4-Gαo after DTT wash): 15 ± 4% | inhibition at 100 µM (RGS4; beads washed in buffer without DTT, read-out: percent inhibition of RGS4-Gαo remaining after washing of the beads): 75 ± 11% | mass shift observed, adduct of one peptide per RGS (RGS4Δ51N; 5 μM RGS4Δ51N (50:1), expected Δ998.5): 999.2 ± 1 | mass shift observed, small peak that may represent two peptides per RGS (RGS4Δ51N; 5 μM RGS4Δ51N, expected Δ1997.0): 1999.1 ± 2
